PMC9854573, “Baicalein Attenuates Brain Iron Accumulation through Protecting Aconitase 1 from Oxidative Stress in Rotenone-Induced Parkinson’s Disease in Rats” (Antioxidants, 2022)

Experiments:
[1] = biological target: T1, ACO1 (recombinant human ACO1 protein) (Homo sapiens, UniProt P21399); assay: surface plasmon resonance (Biacore X100, CM5 chip); format: binding
T1 construct: immobilised on CM5 chip at pH 4.0
T1 sequence (P21399 1-889): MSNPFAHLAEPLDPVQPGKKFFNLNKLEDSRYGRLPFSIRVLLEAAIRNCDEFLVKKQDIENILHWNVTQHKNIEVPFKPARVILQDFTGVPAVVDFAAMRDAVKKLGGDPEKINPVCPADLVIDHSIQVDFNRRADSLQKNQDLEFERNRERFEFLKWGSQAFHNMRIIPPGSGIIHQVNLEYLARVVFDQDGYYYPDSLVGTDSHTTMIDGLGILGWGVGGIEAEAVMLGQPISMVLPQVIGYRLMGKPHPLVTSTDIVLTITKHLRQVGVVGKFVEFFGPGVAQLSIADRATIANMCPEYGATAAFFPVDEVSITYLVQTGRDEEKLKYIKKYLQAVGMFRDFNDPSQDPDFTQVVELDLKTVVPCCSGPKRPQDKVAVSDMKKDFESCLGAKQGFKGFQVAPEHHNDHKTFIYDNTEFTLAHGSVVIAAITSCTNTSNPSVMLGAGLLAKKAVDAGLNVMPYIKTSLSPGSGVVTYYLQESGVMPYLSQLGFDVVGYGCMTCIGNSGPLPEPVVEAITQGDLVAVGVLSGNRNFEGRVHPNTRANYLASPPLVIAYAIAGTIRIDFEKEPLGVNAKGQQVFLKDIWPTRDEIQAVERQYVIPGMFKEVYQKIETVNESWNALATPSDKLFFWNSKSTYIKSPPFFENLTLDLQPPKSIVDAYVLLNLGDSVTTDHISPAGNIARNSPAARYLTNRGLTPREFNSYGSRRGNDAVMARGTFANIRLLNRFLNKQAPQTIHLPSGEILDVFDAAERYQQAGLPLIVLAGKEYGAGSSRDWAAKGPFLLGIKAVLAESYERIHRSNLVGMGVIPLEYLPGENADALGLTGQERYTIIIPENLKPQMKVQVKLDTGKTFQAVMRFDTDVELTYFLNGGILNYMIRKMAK

[2] = biological target: T2, ACO1 (aconitase activity of rat heart homogenate supernatant); assay: aconitase activity, absorbance of aconitate at […] nm; format: biochemical; details: 10 min preincubation, citrate 4 μM, 100 μg protein, Tris-HCl 20 mM pH 7.4, room temperature, no oxidant
T2 construct: crude rat heart homogenate, 12,000 x g supernatant

Kd [1]: 198 µM | IC50 [2]: 166 µM
Compound: O=c1cc(-c2ccccc2)oc2cc(O)c(O)c(O)c12 [baicalein, 5,6,7-trihydroxyflavone]
